We go through seven molecules from article PMC9537541, “Synthesis and anticancer activity of new benzensulfonamides incorporating s-triazines as cyclic linkers for inhibition of carbonic anhydrase IX” (Scientific Reports, 2022).

As usually defined, the Ki is the equilibrium dissociation constant of an inhibitor or competing ligand from its target. A low value points to tighter binding. As a reminder, the melting point is the temperature of the solid-liquid transition. By IC50 is commonly meant the concentration that inhibits the measured activity by half. A higher IC50 goes with a need for much substance.

The target of one data set is T1, hCA II (Homo sapiens, UniProt P00918).
T1 construct: made in house
In words: stopped-flow CO2 hydrase assay, hCA II. Type of data set: biochemical. Conditions: for Ki: stopped flow technique, mean from 3 different assays. As for the experimental part: (§1) Target compounds of series (A) and (B) were screened as inhibitors concerning the physiologically relevant hCAs; cytosolic isoforms (hCA I and II) in addition to the transmembrane tumor related isoforms (hCA IX and XII) via a stopped-flow assay of carbonic anhydrase catalyzed CO2 hydration. Acetazolamide (AAZ), CA I drug, was also incorporated in the assays as a standard drug. […] Four CA isoforms inhibition activity was measured by assaying CA catalyzed CO2 hydration via an applied photophysics stopped-flow instrument. PRISM 3 and the Cheng-prusoff equation were used to determine the inhibition constant by non-linear least square methods as reported, and represent the mean from three different determination at least. All tested carbonic anhydrase isoforms were recombinant proteins prepared in lab as described earlier,[57].

The next data set has as its target T2, hCA XII (Homo sapiens, UniProt O43570).
T2 construct: made in house
In words: stopped-flow CO2 hydrase assay, hCA XII. Type of data set: biochemical. As to conditions: for Selectivity index (SI) I/XII: hCA XII over off-target hCA I; for Selectivity index (SI) II/XII: hCA XII over off-target hCA II; for Ki: stopped flow technique, mean from 3 different assays. As for the experimental part: as §1

The test system of a further data set is CNS cancer (SNB-75). Description: NCI single dose SRB screen, SNB-75. Type of data set: cell-based. Conditions: Homo sapiens, SNB-75, 48 h, 10^−5 M single dose, read-out: GI% CNS cancer (SNB-75). As for the experimental part:
(§2) Target compounds in series (A) and (B), were submitted to the National Cancer Institute (NCI) Developmental Therapeutic Program (www.dtp.nci.nih.gov), where they have been assessed, in vitro for their anticancer activity. Two series (A) and (B), were screened in a single dose (10 µM) versus full panel composed of 60 cancer cell lines, in accordance with protocol of drug evaluation branch, NCI, Bethesda. Sulforhodamine B (SRB) colorimetric assay was used to determine cell growth and viability,[40].
(§3) Protocol of Drug Evaluation Branch, NCI, Bethesda, was adopted in the antitumor assay. Assessment of cell growth and viability was carried out utilizing SRB assay and 48 h drug exposure protocol as previously reported,[40].

The test system of the next data set is Renal cancer (UO-31). In words: NCI single dose SRB screen, UO-31. Type of data set: cell-based. As to conditions: Homo sapiens, UO-31, 48 h, 10^−5 M single dose, read-out: GI% Renal cancer (UO-31). The method, then: as §2, §3
For the next data set, the target named is T3, hCA I (Homo sapiens, UniProt P00915).
T3 construct: made in house
T3 sequence (P00915 whole entry): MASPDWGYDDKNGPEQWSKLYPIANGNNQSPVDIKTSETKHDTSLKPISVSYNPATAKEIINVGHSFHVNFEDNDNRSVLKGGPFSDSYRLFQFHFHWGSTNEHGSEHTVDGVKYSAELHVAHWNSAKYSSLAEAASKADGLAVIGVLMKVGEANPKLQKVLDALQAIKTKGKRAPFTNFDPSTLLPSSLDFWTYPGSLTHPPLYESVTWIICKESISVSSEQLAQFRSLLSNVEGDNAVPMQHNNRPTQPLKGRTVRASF
Description: stopped-flow CO2 hydrase assay, hCA I. Type of data set: biochemical. Conditions: stopped flow technique, mean from 3 different assays. As for the experimental part: as §1

The test system of another data set is Leukemia (SR). Description: NCI single dose SRB screen, SR. Type of data set: cell-based. Conditions: 48 h, 10^−5 M single dose, read-out: GI% Leukemia (SR). As for the experimental part:
as §2, §3

For data set [1], the system named is Breast cancer (MDA-MB-468). Description: NCI single dose SRB screen, MDA-MB-468. Type of data set: cell-based. As to conditions: Homo sapiens, MDA-MB-468, 48 h, 10^−5 M single dose, 48 h, SRB; read-out: GI% Breast cancer (MDA-MB-468). As for the experimental part:
as §2, §3

A further data set has as its target T4, hCA IX (Homo sapiens, UniProt Q16790).
T4 construct: made in house
Description: stopped-flow CO2 hydrase assay, hCA IX. Type of data set: biochemical. As to conditions: for Selectivity index (SI) I/IX: hCA IX over off-target hCA I; for Selectivity index (SI) II/IX: hCA IX over off-target hCA II; for Ki: stopped flow technique, mean from 3 different assays. The method, then:
as §1

The next data set relates to leukemia (CCRF-CM). Description: anti-proliferative activity under hypoxic condition (MTT), CCRF-CM. Type of data set: cell-based. Conditions: hypoxic conditions (1%O2, 5% CO2 and 94% N2), mean ± S.D. of three experiments. The method, then:
All cells were incubated in hypoxic atmosphere (1% O2, 5% CO2, and 94%N2) and maintained at 37 °C. All procedures to determine compounds cytotoxicity were accomplished using MTT assay as reported,[59],[60].

T2 sequence (O43570 25-354): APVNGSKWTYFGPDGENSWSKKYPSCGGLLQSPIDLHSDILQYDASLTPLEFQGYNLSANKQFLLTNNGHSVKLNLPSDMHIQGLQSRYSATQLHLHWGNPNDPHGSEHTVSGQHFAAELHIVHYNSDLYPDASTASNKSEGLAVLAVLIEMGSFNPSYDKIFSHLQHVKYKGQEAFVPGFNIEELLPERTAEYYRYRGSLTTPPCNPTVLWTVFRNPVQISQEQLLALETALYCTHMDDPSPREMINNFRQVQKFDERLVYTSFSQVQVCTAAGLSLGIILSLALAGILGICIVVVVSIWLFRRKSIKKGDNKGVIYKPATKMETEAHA

The molecule `N#C/C(=C\c1cccc(Br)c1)c1nc(N)nc(Nc2ccc(S(N)(=O)=O)cc2)n1` [Compound 12b, 4-({4-Amino-6-[(1E)-2-(3-bromophenyl)-1-cyanoeth-1-en-1-yl]-1,3,5-triazin-2-yl}amino)benzene-1-sulfonamide] displayed a melting point of 234 to 236 °C. Also, at hCA II, the “decrease of hCA II activity relative to the m-fluoro analogue” value turned out to be 8 folds and the Ki came out at 2000 nM. On hCA XII, the “Selectivity index (SI) I/XII” value worked out at 0.3, the “Selectivity index (SI) II/XII” value is 0.2 and the inhibition constant Ki was 8210 nM. Besides, in the data set on CNS cancer (SNB-75), the inhibition at 10 µM was 14%. In addition, the inhibition at 10 µM in the data set on Renal cancer (UO-31) stood at 16%. The same molecule came in with a Ki at hCA I of 2620 nM. Besides, the inhibition at 10 µM with Leukemia (SR) amounted to 14%. In addition, the inhibition at 10 µM in data set [1] worked out at 16%. Also, on hCA IX, the “Selectivity index (SI) I/IX” value worked out at 2.5; the “Selectivity index (SI) II/IX” value turned out to be 2; the affinity, expressed as Ki, was 1020 nM.

In turn, `COc1ccc(/C=C(\C#N)c2nc(N)nc(Nc3ccc(S(N)(=O)=O)cc3)n2)cc1` [Compound 12c, 4-({4-Amino-6-[(1E)-1-cyano-2-(4-methoxyphenyl)eth-1-en-1-yl]-1,3,5-triazin-2-yl}amino)benzene-1-sulfonamide] registered a melting point of 281 to 283 °C. For the same molecule, the affinity on hCA II, expressed as Ki, was 1940 nM. Besides, at hCA XII, the “Selectivity index (SI) I/XII” value worked out at 0.1, the “Selectivity index (SI) II/XII” value amounted to 0.2 and affinity was put at a Ki of 8680 nM. Besides, the inhibition at 10 µM in the data set with CNS cancer (SNB-75) was at most 10%. In addition, the inhibition at 10 µM in the data set on Renal cancer (UO-31) amounted to 14%. This molecule returned a Ki on hCA I of 962 nM. In addition, the inhibition at 10 µM in the data set with Leukemia (SR) turned out to be 16%. Besides, in data set [1], the inhibition at 10 µM is 22%. On hCA IX, the “Selectivity index (SI) I/IX” value was determined as 0.7; the “Selectivity index (SI) II/IX” value is reported as 1.4; the affinity, expressed as Ki, was 1390 nM.

In the case of `N#C/C(=C\c1ccc2c(c1)OCO2)c1nc(N)nc(Nc2ccc(S(N)(=O)=O)cc2)n1` [Compound 12e, 4-({4-Amino-6-[(1E)-2-(2H-1,3-benzodioxol-5-yl)-1-cyanoeth-1-en-1-yl]-1,3,5-triazin-2-yl}amino)benzene-1-sulfonamide], the melting point lay within 269 to 271 °C. On hCA II, this molecule came in with an inhibitory constant (Ki) of 893 nM. At hCA XII, the “Selectivity index (SI) I/XII” value was found to be 0.5, the “Selectivity index (SI) II/XII” value stood at 0.1 and the affinity corresponds to a Ki of 8540 nM. In addition, in the data set with CNS cancer (SNB-75), the inhibition at 10 µM is at most 10%. For the same molecule, the inhibition at 10 µM in the data set with Renal cancer (UO-31) turned out to be 13%. This molecule showed an inhibitory constant (Ki) on hCA I of 4050 nM. For the same molecule, in the data set with Leukemia (SR), the inhibition at 10 µM amounted to 11%. Besides, the inhibition at 10 µM in data set [1] came out at 27%. In addition, at hCA IX, the “Selectivity index (SI) I/IX” value amounted to 4, the “Selectivity index (SI) II/IX” value is 1 and the Ki was 971 nM.

The molecule `N#C/C(=C\c1ccc(F)cc1)c1nc(N)nc(Nc2ccc(S(N)(=O)=O)cc2)n1` [Compound 12f., 4-({4-Amino-6-[(1E)-1-cyano-2-(4-fluorophenyl)eth-1-en-1-yl]-1,3,5-triazin-2-yl}amino)benzene-1-sulfonamide] came in with a melting point of 234 to 236 °C. The molecule further had a Ki at hCA II of 493 nM. For the same molecule, on hCA XII, the “Selectivity index (SI) I/XII” value stood at 0.1, the “Selectivity index (SI) II/XII” value is given as 0.1 and the Ki was found to be 4200 nM. Besides, the inhibition at 10 µM with CNS cancer (SNB-75) was 10%. In addition, in the data set with Renal cancer (UO-31), the inhibition at 10 µM was found to be 15%. Moreover, affinity at hCA I was put at a Ki of 590 nM. For the same molecule, in the data set on Leukemia (SR), the inhibition at 10 µM came out at 11%. Also, the inhibition at 10 µM in data set [1] was determined as 15%. Besides, at hCA IX, the “Selectivity index (SI) I/IX” value was found to be 3, the “Selectivity index (SI) II/IX” value is reported as 2.5 and the inhibitory constant (Ki) amounted to 195 nM.

`Cc1ccc(/C=C(\C#N)c2nc(N)nc(Nc3ccc(S(N)(=O)=O)cc3)n2)cc1` [Compound 12g, 4-({4-Amino-6-[(1E)-1-cyano-2-(4-methylphenyl)eth-1-en-1-yl]-1,3,5-triazin-2-yl}amino)benzene-1-sulfonamide] showed a melting point of 204 to 206 °C. Further, at hCA II, the inhibitory constant (Ki) was determined as 697 nM. Moreover, at hCA XII, the “Selectivity index (SI) I/XII” value worked out at 0.07, the “Selectivity index (SI) II/XII” value turned out to be 0.3 and affinity was put at a Ki of 2310 nM. For the same molecule, the inhibition at 10 µM in the data set with CNS cancer (SNB-75) was 15%. For the same molecule, the inhibition at 10 µM in the data set with Renal cancer (UO-31) worked out at 11%. At hCA I, this molecule gave a Ki of 159 nM. Further, the inhibition at 10 µM in the data set on Leukemia (SR) was at most 10%. Besides, the inhibition at 10 µM in [1] came to 11%. On hCA IX, the “Selectivity index (SI) I/IX” value was found to be 0.8, the “Selectivity index (SI) II/IX” value was 3.6 and the affinity corresponds to a Ki of 195 nM.

`N#C/C(=C\c1cccc(Cl)c1)c1nc(N)nc(Nc2ccc(S(N)(=O)=O)cc2)n1` [Compound 12h, 4-({4-Amino-6-[(1E)-2-(3-chlorophenyl)-1-cyanoeth-1-en-1-yl]-1,3,5-triazin-2-yl}amino)benzene-1-sulfonamide] gave a melting point of 222 to 224 °C. Moreover, on hCA II, the Ki is 320 nM. On hCA XII, the “Selectivity index (SI) I/XII” value came out at 5.8, the “Selectivity index (SI) II/XII” value came out at 3.6 and the affinity corresponds to a Ki of 87.5 nM. In addition, the inhibition at 10 µM in the data set on CNS cancer (SNB-75) is at most 10%. The inhibition at 10 µM with Renal cancer (UO-31) was at most 10%. This molecule also gave a Ki on hCA I of 508 nM. Also, the inhibition at 10 µM in the data set on Leukemia (SR) was 27%. The inhibition at 10 µM in [1] is 11%. For the same molecule, at hCA IX, the “Selectivity index (SI) I/IX” value was 9.7, the “Selectivity index (SI) II/IX” value was determined as 6.1 and the Ki stood at 52.2 nM.

For `CN[C@@H]1C[C@H]2O[C@@](C)([C@@H]1OC)n1c3ccccc3c3c4c(c5c6ccccc6n2c5c31)C(=O)NC4` [Staurosporine, reference compound], the IC50 with leukemia (CCRF-CM) is 2170 ± 110 nM.
